The text below walks through data of ChEMBL document CHEMBL1201862, “PubChem BioAssay data set” (2004).

Among the test systems are UO-31; OVCAR-3; HL-60; ACHN; SK-MEL-2; UACC-257; MOLT-4; DU-145; TK-10; SW-620; SK-MEL-5; A498; M14; RXF 393; OVCAR-8; SNB-75; MCF7; HOP-62; SF-539; NCI-H23.
Assay in all cases: NCI anticancer screen, dose series, 48 h

SMILES strings stand for the structures.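 In this assay, cells in 96-well plates receive the compound at five concentrations for 48 hours. Endpoints are linearly interpolated between the surrounding concentrations. Here, GI50 denotes the concentration required for 50% inhibition of growth.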 Activity calls are given as the source filed them. Rule as the data show it: active = GI50 up to about 1.1 µM and inactive = higher. Where only a bound is given, the exact number is not on record here.

Turning to `COc1ccc2ccccc2c1C1NC(=O)c2ccccc2N1` (stereo not given), the GI50 in the test with UO-31 was 11.3 µM (inactive); with OVCAR-3 it was 0.398 µM (active); with HL-60 it was 0.0518 µM (active); in the test on ACHN, 1.26 µM (inactive); with SK-MEL-2, 2.08 µM (inactive); in the test with UACC-257, 20.8 µM (inactive). In addition, the GI50 in the test on MOLT-4 was 0.826 µM (active); with DU-145, 1.53 µM (inactive); in the test with TK-10, 5.15 µM (inactive); with SW-620 it was 0.536 µM (active); in the test with SK-MEL-5, 0.384 µM (active); in the test with A498 it was 1.3 µM (inactive). For the same compound, the GI50 in the test on M14 was 0.951 µM (active); in the test with RXF 393, 1.37 µM (inactive); with OVCAR-8, 3.03 µM (inactive); with SNB-75, 1.32 µM (inactive); with MCF7, 0.78 µM (active); in the test on HOP-62, 3.51 µM (inactive). Moreover, the GI50 is 1.55 µM (inactive) with SF-539 and 4.67 µM (inactive) in the test on NCI-H23.

`COC(CN(C(=O)c1ccccc1)C1CCC2(SCCS2)c2[nH]c3ccccc3c21)OC` (stereo not given): the GI50 was 16 µM (inactive) in the test with UO-31; 25.8 µM (inactive) in the test with OVCAR-3; 16.9 µM (inactive) with HL-60; 27.8 µM (inactive) in the test on ACHN; 32.6 µM (inactive) in the test with SK-MEL-2; 14.4 µM (inactive) in the test on UACC-257. Also, the GI50 with MOLT-4 is 14.6 µM (inactive); in the test on DU-145, 93.3 µM (inactive); in the test on TK-10, 32.7 µM (inactive); with SW-620, 33.3 µM (inactive); with SK-MEL-5, 26 µM (inactive); in the test with A498, 46.6 µM (inactive). The GI50 in the test with M14 is 30.7 µM (inactive); in the test on RXF 393 it was 20.3 µM (inactive); in the test with OVCAR-8 it was 34.9 µM (inactive); with SNB-75, 20.2 µM (inactive); in the test with MCF7, 32.1 µM (inactive); in the test with HOP-62, 27.7 µM (inactive). The GI50 in the test with SF-539 was 63.1 µM (inactive); in the test on NCI-H23 it was 58.6 µM (inactive).

As to `NC(=O)C(c1ccccc1)N1OC2C(=O)N(c3cccc4ccccc34)C(=O)C2C1c1c2ccccc2c(Cl)c2ccccc12` (stereo not given), the GI50 is 12 µM (inactive) in the test with UO-31; 7.91 µM (inactive) in the test with OVCAR-3; 2.44 µM (inactive) in the test with HL-60; 8.91 µM (inactive) with ACHN; 8.69 µM (inactive) in the test on SK-MEL-2; 5.18 µM (inactive) in the test on UACC-257. The GI50 in the test with MOLT-4 is 1.44 µM (inactive); with DU-145, 14.5 µM (inactive); in the test with TK-10 it was 10.4 µM (inactive); in the test on SW-620, 3.15 µM (inactive); in the test with SK-MEL-5, 5.06 µM (inactive); in the test on A498 it was 14.6 µM (inactive). Further, the GI50 with M14 was 7.03 µM (inactive); in the test on RXF 393 it was 6.81 µM (inactive); in the test on OVCAR-8, 9.29 µM (inactive); with SNB-75, 8.97 µM (inactive); with MCF7, 2.85 µM (inactive); with HOP-62 it was 11 µM (inactive). Also, the GI50 in the test with SF-539 is 5.24 µM (inactive); with NCI-H23, 9.2 µM (inactive).

On to `NC(CCC(=O)O)C(=O)NC(Cc1ccc(N(CCCl)CCCl)cc1)C(=O)O` (stereo not given), for which the GI50 with UO-31, in the test with OVCAR-3, in the test with HL-60, with ACHN, in the test on SK-MEL-2 and in the test with UACC-257 was > 100 µM (inactive) in each case. For the same compound, the GI50 in the test on MOLT-4, in the test with DU-145, in the test with TK-10, in the test on SW-620, in the test with SK-MEL-5 and in the test with A498 was > 100 µM (inactive) throughout. Further, the GI50 in the test with M14, with RXF 393, in the test on OVCAR-8, in the test with SNB-75, in the test on MCF7 and in the test on HOP-62 was > 100 µM (inactive) throughout. Further, the GI50 with SF-539 and with NCI-H23 was > 100 µM (inactive) throughout.

As for `CC(C)(C)COC1C2(OCCO2)C2CCC1(C)C2(C)C` (stereo not given), the GI50 in the test on UO-31 was 26.2 µM (inactive); with OVCAR-3 it was 17.6 µM (inactive); in the test with HL-60, 24.8 µM (inactive); with ACHN it was 20.4 µM (inactive); in the test on SK-MEL-2, 23.4 µM (inactive); in the test on UACC-257 it was 24.9 µM (inactive). The GI50 in the test on MOLT-4 was 21.4 µM (inactive); in the test on DU-145 it was 35.7 µM (inactive); with TK-10, > 100 µM (inactive); in the test on SW-620 it was 19.7 µM (inactive); with SK-MEL-5, 30.3 µM (inactive); in the test with A498, > 100 µM (inactive). In addition, the GI50 was 44 µM (inactive) in the test on M14; 19.6 µM (inactive) with RXF 393; 23.1 µM (inactive) in the test with OVCAR-8; 24.1 µM (inactive) with SNB-75; 19.1 µM (inactive) with MCF7; 22.1 µM (inactive) in the test on HOP-62. The GI50 with SF-539 was 37.8 µM (inactive); in the test on NCI-H23, 52.5 µM (inactive).

For the compound `O=C1NC(=O)C(c2c[nH]c3cc(Br)ccc23)=C1c1cn(C(c2ccccc2)(c2ccccc2)c2ccccc2)cn1`, the GI50 is 14.8 µM (inactive) with UO-31; 29.7 µM (inactive) in the test on OVCAR-3; 13.7 µM (inactive) with HL-60; 20.2 µM (inactive) in the test on ACHN; 11.2 µM (inactive) in the test with SK-MEL-2; 18.5 µM (inactive) in the test with UACC-257. The GI50 is 4.41 µM (inactive) with MOLT-4; 21.6 µM (inactive) in the test with DU-145; 16.2 µM (inactive) in the test with TK-10; 15.7 µM (inactive) with SW-620; 10.5 µM (inactive) with SK-MEL-5; 16.8 µM (inactive) in the test with A498. In addition, the GI50 was 13.2 µM (inactive) in the test on M14; 15 µM (inactive) in the test with RXF 393; 14.6 µM (inactive) in the test on OVCAR-8; 11.5 µM (inactive) in the test with SNB-75; 10.8 µM (inactive) with MCF7; 24.7 µM (inactive) in the test on HOP-62. Moreover, the GI50 is 14.8 µM (inactive) in the test with SF-539 and 11.3 µM (inactive) in the test on NCI-H23.

Take `NS(=O)(=O)c1ccc(/N=N/c2cc3ccccc3c(C(=O)O)c2O)cc1`: the GI50 in the test with UO-31 was > 49.8 µM (inactive); in the test with OVCAR-3, > 47.8 µM (inactive); in the test with HL-60 it was > 100 µM (inactive); with ACHN, 15.7 µM (inactive); in the test with SK-MEL-2, > 45.1 µM (inactive); in the test on UACC-257, > 58.2 µM (inactive). Moreover, the GI50 is > 57 µM (inactive) in the test with MOLT-4; > 46 µM (inactive) in the test on DU-145; > 47.4 µM (inactive) in the test with TK-10; > 41.8 µM (inactive) in the test on SW-620; > 59.2 µM (inactive) in the test on SK-MEL-5; > 53.6 µM (inactive) with A498. Besides, the GI50 in the test on M14 is 97.1 µM (inactive); in the test with RXF 393 it was > 46.2 µM (inactive); with OVCAR-8 it was > 56.8 µM (inactive); in the test with SNB-75, > 60.7 µM (inactive); in the test with MCF7, 2.68 µM (inactive); in the test on HOP-62 it was > 59.2 µM (inactive). The GI50 in the test on SF-539 is > 100 µM (inactive); with NCI-H23 it was > 47.8 µM (inactive).

As for `N/C(=N/O)c1cn(C2OC(CO)C(O)C2O)c2ncnc(NO)c12` (stereo not given), the GI50 was 0.084 µM (active) with UO-31; 0.255 µM (active) in the test on OVCAR-3; 0.166 µM (active) in the test with HL-60; 0.0189 µM (active) in the test on ACHN; < 0.0131 µM (active) in the test on SK-MEL-2; 0.224 µM (active) with UACC-257. Further, the GI50 with MOLT-4 was 0.0871 µM (active); with DU-145, 0.112 µM (active); with TK-10, 0.0865 µM (active); in the test with SW-620, 0.143 µM (active); in the test on SK-MEL-5 it was 0.151 µM (active); with A498, 0.425 µM (active). In addition, the GI50 with M14 was 0.126 µM (active); with RXF 393, 0.356 µM (active); in the test on OVCAR-8 it was 0.242 µM (active); with SNB-75, 0.222 µM (active); with MCF7, 0.144 µM (active); in the test with HOP-62, 0.366 µM (active). Further, the values for the GI50 in the test with SF-539 and in the test with NCI-H23 were 0.117 µM (active) and 0.216 µM (active), respectively.

Consider `CC(O)=NC(Cc1ccc2ccccc2c1)C(O)=NC(Cc1ccc(Cl)cc1)C(O)=NC(Cc1c[nH]c2ccccc12)C(O)=NC(CO)C(O)=NC(Cc1ccc(O)cc1)C(O)=NC(CCCN=C(N)N)C(O)=NC(CC(C)C)C(O)=NC(CCCN=C(N)N)C(=O)N1CCCC1C(O)=NC(C)C(=N)O` (stereo not given), for which the GI50 in the test on UO-31 was 26 µM (inactive); with OVCAR-3, > 100 µM (inactive); in the test with HL-60, > 100 µM (inactive); with ACHN, 15 µM (inactive); in the test with SK-MEL-2, 13.4 µM (inactive); with UACC-257 it was 32.4 µM (inactive). For the same compound, the GI50 was > 100 µM (inactive) in the test on MOLT-4; 26.5 µM (inactive) in the test with DU-145; 30.9 µM (inactive) with TK-10; 76.7 µM (inactive) with SW-620; 34.5 µM (inactive) in the test on SK-MEL-5; 37.6 µM (inactive) in the test on A498. Moreover, the GI50 was 59.8 µM (inactive) with M14; 37.1 µM (inactive) with RXF 393; 27.1 µM (inactive) in the test with OVCAR-8; 38.1 µM (inactive) in the test with SNB-75; 43.8 µM (inactive) in the test on MCF7; 85.7 µM (inactive) in the test with HOP-62. For the same compound, the GI50 in the test on SF-539 was 36.6 µM (inactive); with NCI-H23, 31.3 µM (inactive).

For `CC(N)(Cc1c[nH]c2ccccc12)C(=O)O` (stereo not given), the GI50 with UO-31, in the test with OVCAR-3, in the test with HL-60, in the test on ACHN, in the test on SK-MEL-2 and with UACC-257 was > 100 µM (inactive) throughout. In addition, the GI50 in the test on MOLT-4, with DU-145, in the test on TK-10, with SW-620, in the test with SK-MEL-5 and with A498 was > 100 µM (inactive) in each case. Besides, the GI50 in the test on M14, in the test with RXF 393, in the test with OVCAR-8, in the test with SNB-75, in the test on MCF7 and in the test on HOP-62 was > 100 µM (inactive) in each case. Moreover, the GI50 with SF-539 and in the test with NCI-H23 was > 100 µM (inactive) throughout.
